Source: PMC12155096 (International Journal of Molecular Sciences, 2025)
Structures can show the parent of a compound that is named as a salt. Where two headings read alike, the source gives them in different places.

How the values were obtained:
[1] = target: T1, human CYP1A2 (Homo sapiens, UniProt P05177)
T1 sequence (P05177 1-516): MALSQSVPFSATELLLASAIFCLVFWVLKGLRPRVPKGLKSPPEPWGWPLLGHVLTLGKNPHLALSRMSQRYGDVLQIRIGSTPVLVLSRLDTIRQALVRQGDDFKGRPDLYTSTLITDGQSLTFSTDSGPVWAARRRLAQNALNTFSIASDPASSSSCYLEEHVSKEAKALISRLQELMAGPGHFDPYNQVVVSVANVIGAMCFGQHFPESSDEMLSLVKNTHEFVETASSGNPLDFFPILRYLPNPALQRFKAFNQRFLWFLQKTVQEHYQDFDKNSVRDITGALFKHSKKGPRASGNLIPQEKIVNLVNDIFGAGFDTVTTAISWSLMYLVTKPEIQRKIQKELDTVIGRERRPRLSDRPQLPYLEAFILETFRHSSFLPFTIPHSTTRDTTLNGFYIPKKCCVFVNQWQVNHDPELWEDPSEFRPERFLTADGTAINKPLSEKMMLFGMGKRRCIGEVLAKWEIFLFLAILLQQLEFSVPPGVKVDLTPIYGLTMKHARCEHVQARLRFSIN

[2] = target: human CYP2D6 (Homo sapiens, UniProt P10635)
[3] = target: T2, human CYP2C19 (Homo sapiens, UniProt P33261)
[4] = target: T3, human CYP2C9 (Homo sapiens, UniProt P11712)
[5] = target: T2, human CYP2C19; assay: biochemical
[6] = target: T3, human CYP2C9; assay: biochemical
[7] = CYP2C19 AC50 (half-maximal activity concentration)
[8] = CYP2C9 AC50 (half-maximal activity concentration)
[9] = CYP2C9 IC50 (half-maximal inhibitory concentration)

T2 sequence (P33261 whole entry): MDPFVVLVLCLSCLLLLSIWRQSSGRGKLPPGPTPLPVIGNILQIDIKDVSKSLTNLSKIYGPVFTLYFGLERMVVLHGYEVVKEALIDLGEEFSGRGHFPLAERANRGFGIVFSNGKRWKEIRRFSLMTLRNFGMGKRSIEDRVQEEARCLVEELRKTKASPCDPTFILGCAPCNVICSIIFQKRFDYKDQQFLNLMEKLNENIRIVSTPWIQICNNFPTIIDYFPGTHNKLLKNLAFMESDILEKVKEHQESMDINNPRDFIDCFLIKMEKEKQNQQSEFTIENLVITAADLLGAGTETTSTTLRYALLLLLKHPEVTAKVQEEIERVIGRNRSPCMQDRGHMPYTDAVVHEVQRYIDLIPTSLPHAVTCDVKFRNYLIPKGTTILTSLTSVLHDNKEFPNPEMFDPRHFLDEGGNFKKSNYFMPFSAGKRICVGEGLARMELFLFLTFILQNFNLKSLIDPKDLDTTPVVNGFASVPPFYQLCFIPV
T3 sequence (P11712 whole entry): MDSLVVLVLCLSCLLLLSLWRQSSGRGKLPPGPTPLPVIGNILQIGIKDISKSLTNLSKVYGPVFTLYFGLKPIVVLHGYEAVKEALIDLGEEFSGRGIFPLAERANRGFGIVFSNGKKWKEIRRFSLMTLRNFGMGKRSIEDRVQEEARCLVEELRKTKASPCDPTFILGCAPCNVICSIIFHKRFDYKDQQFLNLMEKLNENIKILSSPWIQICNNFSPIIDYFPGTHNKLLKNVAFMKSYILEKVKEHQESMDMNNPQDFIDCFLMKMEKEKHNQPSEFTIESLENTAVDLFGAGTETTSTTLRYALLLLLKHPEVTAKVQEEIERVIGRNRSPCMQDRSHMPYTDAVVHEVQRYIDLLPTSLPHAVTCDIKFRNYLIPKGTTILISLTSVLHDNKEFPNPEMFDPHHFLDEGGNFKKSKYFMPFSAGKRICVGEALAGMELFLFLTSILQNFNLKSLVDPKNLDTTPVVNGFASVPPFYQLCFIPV
Sequence of human CYP2D6 (P10635 whole entry): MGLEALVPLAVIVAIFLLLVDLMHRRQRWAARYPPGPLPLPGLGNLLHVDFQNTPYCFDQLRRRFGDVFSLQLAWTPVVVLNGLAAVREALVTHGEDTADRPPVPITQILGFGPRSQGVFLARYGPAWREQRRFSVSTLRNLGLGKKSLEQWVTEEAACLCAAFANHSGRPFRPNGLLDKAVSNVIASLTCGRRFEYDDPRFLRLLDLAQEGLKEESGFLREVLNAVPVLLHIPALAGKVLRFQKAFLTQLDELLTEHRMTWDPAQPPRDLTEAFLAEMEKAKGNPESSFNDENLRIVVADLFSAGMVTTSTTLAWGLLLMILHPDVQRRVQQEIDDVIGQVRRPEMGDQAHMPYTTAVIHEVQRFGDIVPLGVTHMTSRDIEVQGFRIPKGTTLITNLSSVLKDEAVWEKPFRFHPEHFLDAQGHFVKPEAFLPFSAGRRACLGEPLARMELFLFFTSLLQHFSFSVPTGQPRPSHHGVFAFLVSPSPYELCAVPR

In the case of `Nc1nc2ccccc2n1Cc1ccc(F)cc1`, the “CYP1A2 Efficacy (in parenthesis)” value [1] is reported as 19.77 ± 4.14 (-57 ± 9) %, the IC50 [1] is reported as 19.8 µM and the “CYP2D6 Efficacy (in parenthesis)” value [2] is reported as 0.67 ± 0.04 (-102 ± 1) %. For the same compound, the IC50 [2] was 0.67 µM, the “CYP2C19 Efficacy (in parenthesis)” value [3] was 17.62 ± 3.69 (-115 ± 18) % and the IC50 [3] was 17.6 µM.
`CCC(OC(C)=O)C(CC(C)NC)(c1ccccc1)c1ccccc1.Cl` (stereo not drawn) was tested, and the “CYP2C9 Efficacy (in parenthesis)” value [4] was 63.02 ± 38.37 (-35 ± 6) %, the IC50 [4] was 63 µM and the “CYP2D6 Efficacy (in parenthesis)” value [2] was 15.52 ± 2.14 (-95 ± 2) %. The IC50 [2] was 15.5 µM, the “CYP2C19 Efficacy (in parenthesis)” value [3] was 21.99 ± 10.33 (-95 ± 7) % and the IC50 [3] was 22 µM.
`Cc1cc(-c2cc(C)c(N)c(C)c2)cc(C)c1N` [3,3'.5,5'-Tetramethylbenzidine] gave an IC50 [1] of 0.45 µM.
Work on `CCC(C)(C)c1ccc(O)cc1` [4-(2-Methylbutan-2-yl)phenol] yielded an AC50 [5, 7] of 4.21 µM and an AC50 [6, 8] of 14.8 µM.
`Sc1ncnc2nc[nH]c12` [6-Mercaptopurine] showed an AC50 [5, 7] of 34.7 µM and an AC50 [6, 8] of 22 µM.
With `COc1c2occc2cc2ccc(=O)oc12` [8-Methoxypsoralen] the “CYP2C9 Efficacy (in parenthesis)” value ([4]; human) was 7.56 ± 2.14 (-95 ± 11) %, the IC50 [6, 9] was 7.56 µM and the “CYP2D6 Efficacy (in parenthesis)” value ([2]; human) was 7.42 ± 0.95 (-106 ± 2) %. For the same compound, the “CYP2C19 Efficacy (in parenthesis)” value ([3]; human) was 12.67 ± 4.61 (-156 ± 24) %.
For `C[C@]12CCC(=O)C=C1CC[C@@H]1[C@@H]2CC[C@@]2(C)[C@H]1CC[C@]2(C)O` [17-Methyltestosterone], the AC50 [6, 8] was 32.7 µM.
For `CCC(=O)O[C@]1(C(=O)COC)[C@@H](C)C[C@H]2[C@@H]3CCC4=CC(=O)C=C[C@]4(C)[C@@]3(F)[C@@H](O)C[C@@]21C` [Amelometasone], the IC50 [4] was 26 µM, the IC50 [2] was 19.5 µM and the IC50 [3] was 43.6 µM.
With `O=C(Nc1ccc(S(=O)(=O)N2CCOCC2)cc1)c1cc(Cl)ccc1NS(=O)(=O)c1ccc(Cl)s1` [Ataciguat] the IC50 [5] was 41.3 ± 3.36 µM, the “CYP2C9 Efficacy (in parenthesis)” value ([4]; human) was 0.05 ± 0.01 (-98 ± 7) % and the IC50 [6] was 0.05 ± 0.01 µM. For the same compound, the “CYP2C19 Efficacy (in parenthesis)” value ([3]; human) was 41.28 ± 3.36 (-131 ± 15) %.
In the case of `COC(=O)N[C@H](C(=O)N[C@@H](Cc1ccccc1)[C@@H](O)CN(Cc1ccc(-c2ccccn2)cc1)NC(=O)[C@@H](NC(=O)OC)C(C)(C)C)C(C)(C)C` [Atazanavir], the IC50 [5] is reported as 36.4 ± 6.55 µM and the IC50 [6] is reported as 15.5 µM.
`CC(C)(c1ccc(O)cc1)c1ccc(O)cc1` [Bisphenol A] was tested, and the AC50 [5, 7] was 20 µM and the AC50 [6, 8] was 29.1 µM.
With `CC(C)C[C@H]1C(=O)N2CCC[C@H]2[C@]2(O)O[C@](NC(=O)[C@@H]3C=C4c5cccc6[nH]c(Br)c(c56)C[C@H]4N(C)C3)(C(C)C)C(=O)N12` [Bromocriptine mesylate] the IC50 ([5]; CYP2C19 IC50 (half-maximal inhibitory concentration)) was 20.8 µM and the IC50 [6, 9] was 7.32 µM.
In the case of `CC(C)C[C@H](NC(=O)[C@H](CCc1ccccc1)NC(=O)CN1CCOCC1)C(=O)N[C@@H](Cc1ccccc1)C(=O)N[C@@H](CC(C)C)C(=O)[C@@]1(C)CO1` [Carfilzomib], the IC50 [6, 9] is reported as 29.2 µM.
In the case of `O=C1c2ccccc2C(=O)C1C(=O)C(c1ccccc1)c1ccc(Cl)cc1` (stereo not drawn) [Cholorophacinone], the IC50 [4] is reported as 0.9 µM.
In the case of `CC1(C)C(C=C(Cl)Cl)C1C(=O)OC(C#N)c1cccc(Oc2ccccc2)c1` (stereo not drawn) [Cypermethrin], the AC50 [5, 7] is reported as 24.6 µM and the AC50 [6, 8] is reported as 11.9 µM.
With `CC(=O)O[C@]1(C(C)=O)CC[C@H]2[C@@H]3C=C(Cl)C4=CC(=O)[C@@H]5C[C@@H]5[C@]4(C)[C@H]3CC[C@@]21C` [Cyproterone acetate] the “CYP1A2 AC50 (half-maximal activity concentration)” value [1] was “Inactive”, the AC50 [6, 8] was 15 µM and the “CYP2D6 AC50 (half-maximal activity concentration)” value [2] was “Inactive”. For the same compound, the “CYP2C19 AC50 (half-maximal activity concentration)” value [3] was “Inconclusive inhibitor”.
`CCCCCCCCCC(=O)O` [Decanoic acid] was tested, and the AC50 [6, 8] was 69.7 µM.
In the case of `C[C@]12CCC(=O)C=C1[C@@H]1C[C@@H]1[C@H]1[C@@H]3[C@@H]4C[C@@H]4[C@@]4(CCC(=O)O4)[C@@]3(C)CC[C@@H]12` [Drospirenone], the AC50 [5] is reported as 1.17 ± 0.35 µM and the AC50 [6] is reported as 26.4 ± 7.81 µM.
`CC(=O)Oc1ccc2c(c1)CC[C@@H]1[C@@H]2CC[C@]2(C)[C@@H](O)CC[C@@H]12` [Estradiol acetate] was tested, and the AC50 [5] was 20.6 ± 4.65 µM.
With `CCCSP(=O)(OCC)SCCC` [Ethoprop] the AC50 [5, 7] was 20 µM and the AC50 [6, 8] was 37 µM.
For `O=C(O)Cc1ccccc1Oc1ccc(Cl)cc1Cl` [Fenclofenac], the AC50 [6] was 29.7 ± 12.5 µM.
In the case of `O=C(O)c1ccccc1Nc1cccc(C(F)(F)F)c1` [Flufenamic acid], the AC50 [6] is reported as 23.9 ± 9.43 µM.
`Fc1ccc(C(c2ccc(F)cc2)N2CCN(C/C=C/c3ccccc3)CC2)cc1` [Flunarizine] gave an AC50 [6, 8] of 14.9 µM.
Work on `COc1ccc(S(=O)(=O)Nc2nnc(CC(C)C)s2)cc1` [Glysobuzole] yielded an AC50 [6, 8] of 12.5 µM.
`Cl[C@H]1[C@H](Cl)[C@@H](Cl)[C@@H](Cl)[C@H](Cl)[C@H]1Cl` [Lindane] gave an AC50 [5, 7] of 35.7 µM and an AC50 [6, 8] of 43.2 µM.
`O=C(O)Cn1c(C(=O)Nc2nc(-c3ccccc3Cl)cs2)cc2ccccc21` [Lintitript] gave an AC50 [6, 8] of 35.1 µM.
Compound `CN(C)C(=O)C(CCN1CCC(O)(c2ccc(Cl)cc2)CC1)(c1ccccc1)c1ccccc1` [Loperamide hydrochloride] has an AC50 [5, 7] of 40.5 µM.
